These results are taken from patent US11117868B2, “Edaravone salt” (Treeway TW001 B.V., priority 2017, dated 2021).

One may read the solubility as the concentration that dissolves in the medium under given conditions.

Converted amounts (≈) assume the structure as drawn. “And” between values parts separate entries of the source, which are not always exact repeats. Identical values can stand only once.

Series [1] can be described thus: Solubility in water after 7 hours equilibration. Format: physicochemical.
The nature of series [2]: Intrinsic dissolution rate in water. Format: physicochemical. The procedure:
The intrinsic dissolution rate in water of the edaravone salt was 0.37 mg/min/cm^2, whereas the dissolution rate of the freebase was 0.22 mg/min/cm^2.

The nature of series [3]: Hygroscopicity / conversion of polymorph through absorption of water. Format: physicochemical.
The nature of series [4]: Storage stability at controlled temperature and relative humidity.
The conditions of series [5]: cited from earlier work.

Take “3-methyl-1-phenyl-2-pyrazolin-5-one hemi-napadisylate monohydrate [Example 1]”: the solubility in water in series [1] (monohydrate) was 2800 µg/mL and 3200 µg/mL. The “intrinsic dissolution rate in water” value in series [2] worked out at 0.37 mg/min/cm^2. For the same compound, in series [3], the hygroscopicity entry is recorded as “non-hygroscopic”. Further, in series [4], the “stability (in words)” value is given as “very stable”. Further, the degradation on storage result in series [4] (kept for 28 days at 40° C. and 75% RH) is “without showing significant degradation”.

As to `CC1=NN(c2ccccc2)C(=O)C1` [Edaravone, 3-Methyl-1-phenyl-2-pyrazolin-5-one], in series [1] (thermodynamic from solid), the solubility at 7 h is 2000 to 3000 µg/mL (≈ 11.5 to 17.2 mM). Besides, in series [5], the “dissolution in water (in words)” value is “dissolves very slowly”. Besides, in series [2], the “intrinsic dissolution rate in water” value was determined as 0.22 mg/min/cm^2.

Turning to `CC1=NN(c2ccccc2)C(=O)C1.CC1=NN(c2ccccc2)C(=O)C1.O.O=S(=O)(O)c1cccc2c(S(=O)(=O)O)cccc12` [Example 3, 3-methyl-1-phenyl-2-pyrazolin-5-one hemi-napadisylate hemihydrate], in series [3] (conversion into polymorph B), the “relative humidity at which it is converted into polymorph B through absorption of water” value is given as over 50 % RH.

Consider `CC1=NN(c2ccccc2)C(=O)C1.CC1=NN(c2ccccc2)C(=O)C1.O.O.O=S(=O)(O)c1cccc2c(S(=O)(=O)O)cccc12` [Example 4, 3-methyl-1-phenyl-2-pyrazolin-5-one hemi-napadisylate monohydrate], for which, in series [3], the hygroscopicity result is reported as “non-hygroscopic”.

“anhydrous 3-methyl-1-phenyl-2-pyrazolin-5-one napadisylate [Example 6]”: the “relative humidity at which it is converted into polymorph D through absorption of water” value in series [3] (conversion into polymorph D) was over 75 % RH. Further, the degradation on storage result in series [4] (kept for 2 days at 40° C. and 75% RH) was “without showing significant degradation”.
